The experiment concerns the target M-phase inducer phosphatase 2 (Homo sapiens) (UniProt P30305). Briefly: concentration-response of Cdc25B catalytic domain blockers – biochemical, fluorescence, IC50, dose response (AID 569). The conditions noted are these: recombinant Cdc25B phosphatase, fluorescence substrate.

Among the data in PubChem BioAssay AID569 (University of Pittsburgh Molecular Library Screening Center, 2006) are IC50 values, retold here.

Structures are written as SMILES. pIC50: −log10 of the molar value. Calls of active or inactive are those of the source. No rule for the calls is given here. A value given as a limit tells only on which side of the number the result lay.

One may read the IC50 as the midpoint of a concentration-inhibition curve. A word on the pIC50: it is the IC50 on a negative log10 scale, so that one unit is a factor of ten.

Chain of M-phase inducer phosphatase 2 (Homo sapiens) (P30305 whole entry, looked up, the tested form may be a part): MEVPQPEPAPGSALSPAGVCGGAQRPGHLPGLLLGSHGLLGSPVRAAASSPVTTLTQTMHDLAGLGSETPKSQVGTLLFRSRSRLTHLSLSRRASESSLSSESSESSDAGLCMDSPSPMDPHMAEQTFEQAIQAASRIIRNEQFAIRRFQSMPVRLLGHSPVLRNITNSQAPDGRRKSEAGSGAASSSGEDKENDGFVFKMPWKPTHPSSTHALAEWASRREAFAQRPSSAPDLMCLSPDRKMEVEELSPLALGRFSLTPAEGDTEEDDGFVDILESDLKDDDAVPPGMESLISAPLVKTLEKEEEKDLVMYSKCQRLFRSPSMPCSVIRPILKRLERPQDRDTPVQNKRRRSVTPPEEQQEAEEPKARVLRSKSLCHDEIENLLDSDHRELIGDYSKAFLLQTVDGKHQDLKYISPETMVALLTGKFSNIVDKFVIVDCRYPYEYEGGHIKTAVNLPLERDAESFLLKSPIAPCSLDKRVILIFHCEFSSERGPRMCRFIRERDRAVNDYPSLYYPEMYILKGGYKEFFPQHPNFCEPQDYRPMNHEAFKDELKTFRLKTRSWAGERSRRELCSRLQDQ

As for `COc1cccc(N2CCN(C3CC(=O)N(c4cccc(Cl)c4)C3=O)CC2)c1` (stereo unspecified), the IC50 is > 50 µM (inactive).
For the compound `N#CC1=C(N)N2C(=C(C#N)C13CCCCC3)SC1CCCCC12O` (stereo unspecified), the IC50 was > 50 µM (inactive).
Regarding `CCOc1cc(C2C(C#N)=C(N)Oc3n[nH]c(-c4ccccc4)c32)ccc1O` (stereo unspecified), the IC50 is > 50 µM (inactive).
Take `O=C1CC(N2CCN(CCc3ccccn3)CC2)C(=O)N1c1ccc(Cl)cc1` (stereo unspecified): the IC50 was > 50 µM (inactive).
Take `Cc1nc2c(C)cccn2c1/C(O)=C1\C(=O)C(=O)N(CCN(C)C)C1c1ccncc1` (stereo unspecified): the IC50 is > 50 µM (inactive).
With `Oc1ccc2ccccc2c1C=NC12CN3CCN(CN(C3)C1)C2`, the negative logarithm of the IC50 (pIC50) was 5.02.
